Data on 15 compounds can be found in patent publication US7566786B2, “Quinoline derivatives as phosphodiesterase inhibitors” (Glaxo Group Limited, priority 2003, dated 2009).

The structures appear in SMILES notation. Structures can show the parent of a compound that is named as a salt.

The target of experiment [1] is PDE5 (human recombinant) (Homo sapiens, UniProt O76074). In words: Inhibition of PDE5 activity: Radioactive Scintillation Proximity Assay (SPA). Particulars: read-out: PDE5 mean pIC50 (converted). Format: biochemical. The source says:
Human recombinant PDE5 is disclosed in K. Loughney et al., “Isolation and characterisation of cDNAs encoding PDE5A, a human cGMP-binding, cGMP-specific 3′,5′-cyclic nucleotide phosphodiesterase”, Gene, 1998, 216, 139-147.
(§1) 2. Inhibition of PDE3, PDE4B, PDE4D, PDE5 or PDE6 Activity: Radioactive Scintillation Proximity Assay (SPA)
(§2) The ability of compounds to inhibit catalytic activity at PDE4B or 4D (human recombinant), PDE3 (from bovine aorta), PDE5 (human recombinant) or PDE 6 (from bovine retina) was determined by Scintillation Proximity Assay (SPA) in 96-well format. Test compounds (preferably as a solution in DMSO, e.g. 2 microlitre (μl) volume) were preincubated at ambient temperature in Wallac Isoplates (code 1450-514) with PDE enzyme in 50 mM Tris-HCl buffer pH 7.5, 8.3 mM MgCl2, 1.7 mM EGTA, 0.05% (w/v) bovine serum albumin for 10-30 minutes. The enzyme concentration was adjusted so that no more than 20% hydrolysis of the substrate occurred in control wells without compound, during the incubation. For the PDE3, PDE4B and PDE4D assays [5′,8-^3H]adenosine 3′,5′-cyclic phosphate (Amersham Pharmacia Biotech, code TRK.559 or Amersham Biosciences UK Ltd, Pollards Wood, Chalfont St Giles, Buckinghamshire HP8 4SP, UK) was added to give 0.05 μCi per well and ˜10 nM final concentration. For the PDE5 and PDE6 assays [8-^3H]guanosine 3′,5′-cyclic phosphate (Amersham Pharmacia Biotech , code TRK.392) was added to give 0.05 μCi per well and ˜36 nM final concentration. Plates e.g. containing approx. 100 μl volume of assay mixture were mixed on an orbital shaker for 5 minutes and incubated at ambient temperature for 1 hour. Phosphodiesterase SPA beads (Amersham Pharmacia Biotech, code RPNQ 0150) suspended in buffer were added (˜1 mg per well) to terminate the assay. Plates were sealed and shaken and allowed to stand at ambient temperature for 35 minutes to 1 hour to allow the beads to settle. Bound radioactive product was measured using a WALLAC TRILUX 1450 Microbeta scintillation counter. […] Curves were analysed using
(§3) ActivityBase and XLfit (ID Business Solutions Limited, 2 Ocean Court, Surrey Research Park, Guildford, Surrey GU2 7QB, United Kingdom). Results were expressed as pIC50 values.
(In general: In a scintillation proximity assay essentially only radioactivity close to the scintillant gives light.)

The target in experiment [2] is T1, PDE4B (human recombinant) (Homo sapiens, UniProt Q07343).
T1 construct: made in house
T1 sequence (Q07343 1-564 isoform Q07343-2): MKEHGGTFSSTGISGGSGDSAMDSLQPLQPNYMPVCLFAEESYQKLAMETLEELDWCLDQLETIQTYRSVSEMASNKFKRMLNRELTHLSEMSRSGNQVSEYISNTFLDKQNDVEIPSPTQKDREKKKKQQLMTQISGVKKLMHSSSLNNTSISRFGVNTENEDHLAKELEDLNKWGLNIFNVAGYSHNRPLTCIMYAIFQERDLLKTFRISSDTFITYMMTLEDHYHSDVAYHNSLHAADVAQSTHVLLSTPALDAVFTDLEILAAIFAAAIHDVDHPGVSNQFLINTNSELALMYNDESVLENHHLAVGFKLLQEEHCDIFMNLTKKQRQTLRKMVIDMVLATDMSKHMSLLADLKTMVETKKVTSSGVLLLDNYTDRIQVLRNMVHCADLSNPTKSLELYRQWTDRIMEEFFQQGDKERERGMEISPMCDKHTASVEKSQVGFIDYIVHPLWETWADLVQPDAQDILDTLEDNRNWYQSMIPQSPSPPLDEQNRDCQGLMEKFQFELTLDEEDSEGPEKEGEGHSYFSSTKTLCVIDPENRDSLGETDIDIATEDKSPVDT
In words: Inhibition of PDE4B activity: Radioactive Scintillation Proximity Assay (SPA). Format: biochemical. The settings on record: SPA or FP format not given; for IC50: read-out: PDE4B mean pIC50 (converted).
Excerpt: Human recombinant PDE4B, in particular the 2B splice variant thereof (HSPDE4B2B), is disclosed in WO 94/20079 and also in M. M. McLaughlin et al., “A low Km, rolipram-sensitive, cAMP-specific phosphodiesterase from human brain: cloning and expression of cDNA, biochemical characterisation of recombinant protein, and tissue distribution of mRNA”, J. Biol. Chem., 1993, 268, 6470-6476. For example, in Example 1 of WO 94/20079, human recombinant PDE4B is described as being expressed in the PDE-deficient yeast Saccharomyces cerevisiae strain GL62, e.g. after induction by addition of 150 μM CuSO4, and 100,000×g supernatant fractions of yeast cell lysates are described for use in the harvesting of PDE4B enzyme.
as §1, §2, §3

With `COc1cccc(Nc2c(C(N)=O)cnc3ccc(S(C)(=O)=O)cc23)c1` [Example 27, 4-{[3-(methyloxy)phenyl]amino}-6-(methylsulfonyl)-3-quinolinecarboxamide], the IC50 in experiment [1] is 15800 nM.

Turning to `CN(C)c1cccc(Nc2c(C(N)=O)cnc3ccc(S(=O)(=O)C4CCCC4)cc23)c1` [Example 92], the results for the IC50 in experiment [2] and in experiment [1] were 20 nM and over 31600 nM, respectively. For the compound `COc1ccc(S(=O)(=O)c2cc(C)c3ncc(C(N)=O)c(Nc4cccc(OC)c4)c3c2)cc1` [Example 265, 8-methyl-4-{[3-(methyloxy)phenyl]amino}-6-{[4-(methyloxy)phenyl]sulfonyl}-3-quinolinecarboxamide], the results for the IC50 in experiment [2] and in experiment [1] were 0.00501 nM and 6310 nM, respectively.

Consider `Cc1cc(S(C)(=O)=O)cc2c(Nc3cccc4c3CCO4)c(C(N)=O)cnc12` [Example 307, 4-(2,3-dihydro-1-benzofuran-4-ylamino)-8-methyl-6-(methylsulfonyl)-3-quinolinecarboxamide], for which the IC50 in experiment [2] was 0.0316 nM; in experiment [1], over 25100 nM.

Turning to `Cc1cc(S(C)(=O)=O)cc2c(Nc3ccc4cnn(C)c4c3)c(C(N)=O)cnc12` [Example 309, 8-methyl-4-[(1-methyl-1H-indazol-6-yl)amino]-6-(methylsulfonyl)-3-quinolinecarboxamide], the values for the IC50 in experiment [2] and in experiment [1] were 0.0794 nM and over 12600 nM, respectively. Consider `Cc1cc(S(C)(=O)=O)cc2c(Nc3cccc(C#N)c3)c(C(N)=O)cnc12` [Example 312, 4-[(3-cyanophenyl)amino]-8-methyl-6-(methylsulfonyl)-3-quinolinecarboxamide], for which, in experiment [2], the “PDE4B mean pIC50” value is recorded as 9.4. Further, the IC50 in experiment [1] is over 31600 nM. For the compound `Cc1cccc(Nc2c(C(N)=O)cnc3c(Cl)cc(S(C)(=O)=O)cc23)c1` [Example 369, 8-chloro-4-[(3-methylphenyl)amino]-6-(methylsulfonyl)-3-quinolinecarboxamide], the IC50 in experiment [2] is 0.316 nM; in experiment [1], 7940 nM. In the same order, the values of `COc1cccc(Nc2c(C(N)=O)cnc3c(C)cc(S(=O)(=O)c4ccc(OC)c(OC)c4)cc23)c1` [Example 380, 6-{[3,4-bis(methyloxy)phenyl]sulfonyl}-8-methyl-4-{[3-(methyloxy)phenyl]amino}-3-quinolinecarboxamide] are 0.00398 nM and over 100 nM.

In the case of `COc1cccc(Nc2c(C(N)=O)cnc3c(C)cc(S(=O)(=O)c4cccc(C(=O)N(C)C)c4)cc23)c1` [Example 399, 6-({3-[(dimethylamino)carbonyl]phenyl}sulfonyl)-8-methyl-4-{[3-(methyloxy)phenyl]amino}-3-quinolinecarboxamide], the values for the IC50 in experiment [2] and in experiment [1] were under 0.00251 nM and 2510 nM, respectively.

With `COc1cccc(Nc2c(C(N)=O)cnc3ccc(S(=O)(=O)c4cccc(C(=O)N(C)C)c4)cc23)c1` [Example 400, 6-({3-[(dimethylamino)carbonyl]phenyl}sulfonyl)-4-{[3-(methyloxy)phenyl]amino}-3-quinolinecarboxamide], the IC50 in experiment [2] was 0.01 nM; in experiment [1], over 10000 nM. For `Cc1cc(S(=O)(=O)c2cccc(C(=O)N(C)C)c2)cc2c(Nc3cccc(C#N)c3)c(C(N)=O)cnc12` [Example 408, 4-[(3-cyanophenyl)amino]-6-({3-[(dimethylamino)carbonyl]phenyl}sulfonyl)-8-methyl-3-quinolinecarboxamide], the IC50 in experiment [2] is 0.00398 nM. For `Cc1cc(S(=O)(=O)C2CCN(C(=O)c3ccco3)CC2)cc2c(Nc3cccc4c3CCO4)c(C(N)=O)cnc12` [Example 446, 4-(2,3-dihydro-1-benzofuran-4-ylamino)-6-{[1-(2-furanylcarbonyl)-4-piperidinyl]sulfonyl}-8-methyl-3-quinolinecarboxamide], the IC50 was 0.00501 nM in experiment [2] and over 31600 nM in experiment [1]. In the same order, the values of `Cc1cc(S(=O)(=O)CCNS(C)(=O)=O)cc2c(Nc3cccc4c3CCO4)c(C(N)=O)cnc12` [Example 457, 4-(2,3-dihydro-1-benzofuran-4-ylamino)-8-methyl-6-({2-[(methylsulfonyl)amino]ethyl}sulfonyl)-3-quinolinecarboxamide] are 0.01 nM and over 3160 nM.

Regarding `Cc1cc(S(C)(=O)=O)cc2c(Nc3cc(F)cc(F)c3)c(C(N)=O)cnc12` [Example 502, 4-[(3,5-difluorophenyl)amino]-8-methyl-6-(methylsulfonyl)-3-quinolinecarboxamide], the results for the IC50 in experiment [2] and in experiment [1] were 1.26 nM and over 10000 nM, respectively.

Consider `COc1cccc(Nc2c(C(N)=O)cnc3c(C)cc(S(=O)(=O)c4cncc(C(=O)N(C)C)c4)cc23)c1` [Example 546, 6-({5-[(dimethylamino)carbonyl]-3-pyridinyl}sulfonyl)-8-methyl-4-{[3-(methyloxy)phenyl]amino}3-quinolinecarboxamide hydrochloride], for which the values for the IC50 in experiment [2] and in experiment [1] were 0.02 nM and 20000 nM, respectively.
